In test [1] the test system is veratrine-evoked release of glutamate from rat brain slices. Kind of test: Inhibition of veratrine-evoked release of glutamate from rat brain slices. The test is classed as cell-based. The note with it: read-out: IC50(µM) Glutamate Release (P95 limits). The method, then: (§1) A compound of Formula (1) was tested for its effect on veratrine-evoked release of glutamate from rat brain slices according to the protocol described in Epilepsia 27(5): 490-497, 1986. The protocol for testing for inhibition of DHFR activity was a modification of that set out in Biochemical Pharmacology Vol.20 pp 561-574, 1971.
(§2) The results are given in Table 1, the IC50 being the concentration of compound to cause 50% inhibition of (a) veratrine-evoked release of glutamate and (b) of DHFR enzyme activity.

Test [2] deals with T1, Rat Liver DHFR (Rattus norvegicus, UniProt Q920D2).
T1 construct: from tissue; host or cells: rat liver
T1 sequence (Q920D2 1-187): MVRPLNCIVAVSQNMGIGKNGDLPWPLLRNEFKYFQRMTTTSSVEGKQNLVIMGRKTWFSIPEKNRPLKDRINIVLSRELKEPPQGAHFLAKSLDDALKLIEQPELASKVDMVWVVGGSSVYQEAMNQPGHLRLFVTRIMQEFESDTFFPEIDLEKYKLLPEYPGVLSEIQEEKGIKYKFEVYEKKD
Kind of test: Inhibition of DHFR enzyme activity. The test is classed as biochemical. The note with it: read-out: IC50(µM) Rat Liver DHFR (P95 limits). How it is done:
as §1, §2

Some results are limits rather than exact numbers.

Among the data in patent publication EP0459829A1, “Pharmacologically active CNS compounds” (THE WELLCOME FOUNDATION LIMITED, priority 1990, dated 1991) are IC50 values, retold here.

For orientation: IC50 means the concentration that inhibits the measured activity by half.

Take `Nc1nnc(-c2cc(Cl)c(N)c(Cl)c2Cl)c(N)n1` [Example 1, 3,5-Diamino-6-(4-amino-2,3,5-trichlorophenyl)-1,2,4-triazine]: the IC50 was under 10 µM in test [1] and over 100 µM in test [2].
